In ChEMBL document CHEMBL1201862, “PubChem BioAssay data set” (2004):
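All cell lines were grown in 96-well plates and treated with compound for 48 hours. At the GI50, growth is halved.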 Active and inactive are the calls of the source. Cut-off read from the data, not from the text of the source: active = GI50 up to about 1.1 µM and inactive = higher.

Tests used:
Test in all cases: growth of human tumour cells (NCI), 48 h
SK-MEL-28 = system: SK-MEL-28
OVCAR-4 = system: OVCAR-4
786-0 = system: 786-0
PC-3 = system: PC-3
SNB-19 = system: SNB-19
NCI/ADR-RES = system: NCI/ADR-RES
HCC 2998 = system: HCC 2998
TK-10 = system: TK-10
CCRF-CEM = system: CCRF-CEM
K562 = system: K562
IGROV-1 = system: IGROV-1
SNB-75 = system: SNB-75
NCI-H226 = system: NCI-H226
HCT-116 = system: HCT-116
SK-MEL-5 = system: SK-MEL-5
HCT-15 = system: HCT-15
UACC-62 = system: UACC-62
SW-620 = system: SW-620
MCF7 = system: MCF7
SK-MEL-2 = system: SK-MEL-2
BT-549 = system: BT-549
OVCAR-8 = system: OVCAR-8
HT-29 = system: HT-29
NCI-H522 = system: NCI-H522
DU-145 = system: DU-145
EKVX = system: EKVX
Hs-578T = system: Hs-578T
T47D = system: T47D
MDA-MB-435 = system: MDA-MB-435
SF-295 = system: SF-295
HOP-62 = system: HOP-62
A498 = system: A498
SF-268 = system: SF-268
HOP-92 = system: HOP-92
RPMI-8226 = system: RPMI-8226
ACHN = system: ACHN
CAKI-1 = system: CAKI-1
COLO 205 = system: COLO 205
RXF 393 = system: RXF 393
KM12 = system: KM12
LOX IMVI = system: LOX IMVI
NCI-H460 = system: NCI-H460
U-251 = system: U-251
SF-539 = system: SF-539
UO-31 = system: UO-31
HL-60 = system: HL-60
SN12C = system: SN12C
A549 = system: A549
NCI-H23 = system: NCI-H23
MDA-MB-231 = system: MDA-MB-231
UACC-257 = system: UACC-257
MOLT-4 = system: MOLT-4
Malme-3M = system: Malme-3M
M14 = system: M14
OVCAR-3 = system: OVCAR-3
OVCAR-5 = system: OVCAR-5
SK-OV-3 = system: SK-OV-3
SR = system: SR

O=C1CCc2c3c(c4c([nH]c5ccccc54)c2CC1)C(=O)NC3=O
GI50 (SK-MEL-28): 3140 nM (inactive) | GI50 (OVCAR-4): 2080 nM (inactive) | GI50 (786-0): 11700 nM (inactive) | GI50 (PC-3): 2050 nM (inactive) | GI50 (SNB-19): 3940 nM (inactive) | GI50 (NCI/ADR-RES): 16400 nM (inactive) | GI50 (HCC 2998): 27900 nM (inactive) | GI50 (TK-10): 10200 nM (inactive) | GI50 (CCRF-CEM): 2000 nM (inactive) | GI50 (K562): 1190 nM (inactive) | GI50 (IGROV-1): 893 nM (active) | GI50 (SNB-75): 26.5 nM (active) | GI50 (NCI-H226): 3320 nM (inactive) | GI50 (HCT-116): 2050 nM (inactive) | GI50 (SK-MEL-5): 1910 nM (inactive) | GI50 (HCT-15): 2700 nM | GI50 (UACC-62): 4450 nM (inactive) | GI50 (SW-620): 815 nM (active) | GI50 (MCF7): 2970 nM (inactive) | GI50 (SK-MEL-2): 2700 nM (inactive) | GI50 (BT-549): 7460 nM (inactive) | GI50 (OVCAR-8): 6870 nM (inactive) | GI50 (HT-29): 3530 nM (inactive) | GI50 (NCI-H522): 766 nM (active) | GI50 (DU-145): 9980 nM (inactive) | GI50 (EKVX): 11100 nM (inactive) | GI50 (Hs-578T): 2080 nM (inactive) | GI50 (T47D): 1460 nM (inactive) | GI50 (MDA-MB-435): 1310 nM (inactive) | GI50 (SF-295): 6010 nM (inactive) | GI50 (HOP-62): 12300 nM (inactive) | GI50 (A498): 2220 nM (inactive) | GI50 (SF-268): 7850 nM (inactive) | GI50 (HOP-92): 18600 nM (inactive) | GI50 (RPMI-8226): 3380 nM (inactive) | GI50 (ACHN): 1010 nM (active) | GI50 (CAKI-1): 2020 nM (inactive) | GI50 (COLO 205): 630 nM (active) | GI50 (RXF 393): 1910 nM (inactive) | GI50 (KM12): 94.2 nM (active) | GI50 (LOX IMVI): 1180 nM (inactive) | GI50 (NCI-H460): 1580 nM (inactive) | GI50 (U-251): 4550 nM (inactive) | GI50 (SF-539): 5360 nM (inactive) | GI50 (UO-31): 998 nM (active) | GI50 (HL-60): 671 nM (active) | GI50 (SN12C): 4320 nM (inactive) | GI50 (A549): 7050 nM (inactive) | GI50 (NCI-H23): 8930 nM (inactive) | GI50 (MDA-MB-231): 25300 nM (inactive) | GI50 (UACC-257): 5050 nM (inactive) | GI50 (MOLT-4): 774 nM (active) | GI50 (Malme-3M): 3480 nM (inactive) | GI50 (M14): 5050 nM (inactive) | GI50 (OVCAR-3): 3510 nM (inactive) | GI50 (OVCAR-5): 34100 nM (inactive)

CSC1SCC2C(=O)N(C)C3(CC3C)C(=O)OCC(NC(=O)c3nc4ccccc4cc3O)C(=O)NC(C)C(=O)N(C)C1C(=O)N(C)C1(CC1C)C(=O)OCC(NC(=O)c1nc3ccccc3cc1O)C(=O)NC(C)C(=O)N2C (centres undefined)
GI50 (SK-MEL-28): < 0.1 nM (active) | GI50 (OVCAR-4): < 0.1 nM (active) | GI50 (786-0): < 0.1 nM (active) | GI50 (PC-3): < 0.1 nM (active) | GI50 (SNB-19): < 0.1 nM (active) | GI50 (NCI/ADR-RES): 176 nM (active) | GI50 (HCC 2998): < 0.1 nM (active) | GI50 (TK-10): < 0.1 nM (active) | GI50 (CCRF-CEM): < 0.1 nM (active) | GI50 (K562): < 0.1 nM (active) | GI50 (IGROV-1): < 0.1 nM (active) | GI50 (SNB-75): < 0.1 nM (active) | GI50 (NCI-H226): < 0.1 nM (active) | GI50 (HCT-116): < 0.1 nM (active) | GI50 (SK-MEL-5): < 0.1 nM (active) | GI50 (HCT-15): 14.6 nM | GI50 (UACC-62): < 0.1 nM (active) | GI50 (SW-620): < 0.1 nM (active) | GI50 (MCF7): < 0.1 nM (active) | GI50 (SK-MEL-2): < 0.1 nM (active) | GI50 (BT-549): < 10 nM (active) | GI50 (OVCAR-8): < 0.1 nM (active) | GI50 (HT-29): < 0.1 nM (active) | GI50 (NCI-H522): < 10 nM (active) | GI50 (SK-OV-3): < 0.1 nM (active) | GI50 (DU-145): < 0.1 nM (active) | GI50 (EKVX): 100 nM (active) | GI50 (Hs-578T): < 0.1 nM (active) | GI50 (T47D): < 0.1 nM (active) | GI50 (MDA-MB-435): < 0.1 nM (active) | GI50 (SF-295): < 0.1 nM (active) | GI50 (HOP-62): < 0.1 nM (active) | GI50 (A498): < 0.1 nM (active) | GI50 (SF-268): < 0.1 nM (active) | GI50 (HOP-92): < 0.1 nM (active) | GI50 (RPMI-8226): < 0.1 nM (active) | GI50 (ACHN): < 0.1 nM (active) | GI50 (CAKI-1): 0.871 nM (active) | GI50 (COLO 205): < 0.1 nM (active) | GI50 (RXF 393): < 0.1 nM (active) | GI50 (SR): < 0.1 nM (active) | GI50 (KM12): < 0.1 nM (active) | GI50 (LOX IMVI): < 0.1 nM (active) | GI50 (NCI-H460): < 0.1 nM (active) | GI50 (U-251): < 0.1 nM (active) | GI50 (SF-539): < 0.1 nM (active) | GI50 (UO-31): 0.449 nM (active) | GI50 (HL-60): < 0.1 nM (active) | GI50 (SN12C): < 0.1 nM (active) | GI50 (A549): < 0.1 nM (active) | GI50 (NCI-H23): < 0.1 nM (active) | GI50 (MDA-MB-231): < 0.1 nM (active) | GI50 (UACC-257): 100 nM (active) | GI50 (MOLT-4): < 0.1 nM (active) | GI50 (Malme-3M): < 0.1 nM (active) | GI50 (M14): < 0.1 nM (active) | GI50 (OVCAR-3): < 0.1 nM (active) | GI50 (OVCAR-5): < 0.1 nM (active)
